Experiment: Photostability under continuous UV excitation
Assay type: physicochemical
Details: continuous UV excitation for 3 h
Protocol: The photostability of ABPLP micelles was also investigated and compared to the organic fluorescent dye rhodamine-B. The fluorescence intensity of the ABPLP micelle solution decreased by only 1 percent of the initial intensity after continuous UV excitation for 3 h, indicating excellent photostability. In contrast, rhodamine-B lost almost 10 percent of initial fluorescence intensity within the same experimental period.

Loss of initial fluorescence intensity: ~10%
Structure (SMILES): CCN(CC)c1ccc2c(-c3ccccc3C(=O)O)c3ccc(=[N+](CC)CC)cc-3oc2c1.[Cl-] [rhodamine-B]
